We go through 21 compounds from ChEMBL document CHEMBL1177675, “Synthesis and antiproliferative evaluation of certain iminonaphtho[2,3-b]furan derivatives” (Bioorg Med Chem, 2010).

Series [1] has as its system MCF7. Kind of series: Cytotoxicity against human MCF7 cells at 4 ug/ml after 48 hrs by sulforhodamine B assay relative to control. Format: functional.
Series [2] has as its system NCI-H460. Kind of series: Cytotoxicity against human NCI-H460 cells at 4 ug/ml after 48 hrs by sulforhodamine B assay relative to control. Type of series: functional. In general terms: The SRB assay estimates cell density from bound dye.
Series [3] has as its system SF-268. Briefly: Cytotoxicity against human SF268 cells at 4 ug/ml after 48 hrs by sulforhodamine B assay relative to control. Type of series: functional.
Series [4] relates to MCF7. Kind of series: Cytotoxicity against human MCF7 cells after 72 hrs by XTT assay. Conditions: MCF7, 72 h. Type of series: functional. On the technique in general: Formazan colour is commonly taken as a measure of viable cells.
Series [5] concerns NCI-H460. Kind of series: Cytotoxicity against human NCI-H460 cells after 72 hrs by XTT assay. Format: functional. The following applies: NCI-H460, 72 h.
The test system of series [6] is SF-268. Kind of series: Cytotoxicity against human SF268 cells after 72 hrs by XTT assay. Format: functional. Conditions: SF-268, 72 h.
Series [7] is described as follows: Cytotoxicity against human Detroit 551 cells after 72 hrs by XTT assay. Format: cell-based.
The subject of series [8] is MCF7. Kind of series: Selectivity index, ratio of GI50 for human Detroit 551 cells to GI50 for human MCF7 cells. Format: functional.
The subject of series [9] is NCI-H460. Briefly: Selectivity index, ratio of GI50 for human Detroit 551 cells to GI50 for human NCI-H460 cells. Type of series: functional.
Series [10] concerns SF-268. Briefly: Selectivity index, ratio of GI50 for human Detroit 551 cells to GI50 for human SF268 cells. Format: functional.
Series [11] concerns K562. Kind of series: Cytotoxicity against human K562 cells after 72 hrs by XTT assay. Type of series: functional. The following applies: K562, 72 h.
For series [12], the system named is K562. Kind of series: Selectivity index, ratio of GI50 for human Detroit 551 cells to GI50 for human K562 cells. Format: functional.
Series [13] concerns K562. Kind of series: Cell cycle arrest in human K562 cells assessed as accumulation at G0/G1 phase at 1 uM after 24 hrs using propidium iodide staining by flow cytometry. Type of series: functional. On the technique in general: In flow cytometry, cells or beads pass a laser one at a time.
The test system of series [14] is K562. Kind of series: Cell cycle arrest in human K562 cells assessed as accumulation at S phase at 1 uM after 24 hrs using propidium iodide staining by flow cytometry. Format: functional.
Series [15] deals with K562. Kind of series: Cell cycle arrest in human K562 cells assessed as accumulation at G2/M phase at 1 uM after 24 hrs using propidium iodide staining by flow cytometry. Type of series: functional.
For series [16], the system named is K562. Briefly: Cell cycle arrest in human K562 cells assessed as accumulation at Sub-G1 phase at 1 uM after 24 hrs using propidium iodide staining by flow cytometry. Format: functional.

The structures appear in SMILES notation. Some results are limits rather than exact numbers.

The GI50 is the concentration that inhibits growth by half. Read a high GI50 as lower sensitivity of the cells.

`CC[C@@]1(O)C(=O)OCc2c1cc1n(c2=O)Cc2cc3ccccc3nc2-1` [CAMPTOTHECIN]: the Activity with MCF7 [1] was found to be 33%; in the series with NCI-H460 [2], 1%; with SF-268 [3], 25%. For the same compound, the GI50 in the series on MCF7 [4] is 570 nM; in the series with NCI-H460 [5] it was 30 nM; with SF-268 [6], 190 nM; with K562 [11], 60 nM. Moreover, the GI50 at 72 h in series [7] came out at 990 nM. The RatioGI50 came to 1.74 in the series on MCF7 [8], 33 in the series on NCI-H460 [9], 5.21 with SF-268 [10] and 16.5 in the series on K562 [12].

Regarding `O=C1c2ccccc2/C(=N/OCCN2CCCC2)c2ccoc21`, the Activity in the series with MCF7 [1] amounted to 72%; with NCI-H460 [2] it was 51%; in the series on SF-268 [3], 58%.

Take `Br.NCCCO/N=C1/c2ccccc2C(=O)c2occc21`: the Activity with MCF7 [1] is 10%; in the series with NCI-H460 [2], 44%; in the series with SF-268 [3], 15%; with K562 [13], 33.5%; with K562 [14] it was 3.2%; in the series with K562 [15] it was 63.3%. The Activity with K562 [16] is given as 4.19%. Also, the GI50 worked out at 12600 nM in the series on MCF7 [4], 7190 nM with NCI-H460 [5], 9020 nM with SF-268 [6] and 6620 nM in the series on K562 [11]. In series [7], the GI50 at 72 h came to 40900 nM. The RatioGI50 in the series with MCF7 [8] was 3.24; in the series with NCI-H460 [9], 5.69; with SF-268 [10], 4.53; in the series with K562 [12], 6.18.

`CN(C)CCCO/N=C1/c2ccccc2C(=O)c2occc21`: the values for the Activity in the series with MCF7 [1], in the series with NCI-H460 [2] and in the series on SF-268 [3] were 74%, 51% and 54%, respectively.

With `O=C1c2ccccc2/C(=N/OCCN2CCOCC2)c2ccoc21`, the results for the Activity with MCF7 [1], in the series with NCI-H460 [2] and in the series on SF-268 [3] were 97%, 68% and 90%, respectively.

As to `COc1ccc(/N=C2/c3ccccc3/C(=N/c3ccc(OC)cc3)c3occc32)cc1`, the figures for the Activity with MCF7 [1], with NCI-H460 [2] and in the series on SF-268 [3] were 86%, 90% and 85%, respectively.

Take `COc1cccc2c1C(=O)c1c(O)c3c(c(O)c1C2=O)C[C@@](O)(C(C)=O)C[C@@H]3O[C@H]1C[C@H](N)[C@H](O)[C@H](C)O1` [DAUNORUBICIN]: the Activity in the series with MCF7 [1] is reported as 30%; in the series with NCI-H460 [2], 15%; in the series on SF-268 [3], 16%. The GI50 in the series with MCF7 [4] turned out to be 860 nM; in the series with NCI-H460 [5], 380 nM; in the series with SF-268 [6], 600 nM; in the series with K562 [11], 7.4 nM. Moreover, growth in [7] was halved (GI50 at 72 h) at 1770 nM. Also, the RatioGI50 in the series with MCF7 [8] stood at 2.06; in the series with NCI-H460 [9], 4.66; in the series with SF-268 [10], 2.95; in the series with K562 [12], 239.

For `O=C1c2ccccc2C(=O)c2occc21`, the Activity in the series with MCF7 [1] worked out at 1%; with NCI-H460 [2], 2%; with SF-268 [3], 16%; in the series with K562 [13], 27.4%; with K562 [14] it was 29.4%; in the series with K562 [15], 43.2%. Besides, the Activity in the series on K562 [16] came out at 8.24%. In addition, the GI50 with MCF7 [4] is 5920 nM; in the series with NCI-H460 [5] it was 5070 nM; with SF-268 [6], 5650 nM; in the series on K562 [11], 650 nM. The GI50 at 72 h in series [7] is 14800 nM. Moreover, the RatioGI50 in the series with MCF7 [8] is 2.5; in the series on NCI-H460 [9], 2.92; in the series with SF-268 [10] it was 2.62; in the series with K562 [12], 22.82.

In the case of `CCN(CC)CCOC(=O)c1ccc(/N=C2/c3ccccc3/C(=N/c3ccc(C(=O)OCCN(CC)CC)cc3)c3occc32)cc1`, the Activity in the series on MCF7 [1] is recorded as -1%; with NCI-H460 [2], -1%; in the series with SF-268 [3], 18%; in the series on K562 [13] it was 40.4%; in the series with K562 [14] it was 7.1%; in the series on K562 [15] it was 52.5%. In the series on K562 [16], the Activity worked out at 5.56%. Besides, the GI50 with MCF7 [4] worked out at 2600 nM; in the series on NCI-H460 [5] it was 2230 nM; in the series on SF-268 [6], 4100 nM; in the series with K562 [11], 630 nM. This compound also displayed a GI50 at 72 h in [7] of 1970 nM. The RatioGI50 came to 0.76 with MCF7 [8], 0.88 in the series with NCI-H460 [9], 0.49 with SF-268 [10] and 3.13 in the series on K562 [12].

Consider `CC(=O)O/N=C1/c2ccccc2C(=O)c2occc21`, for which the Activity came to 10% in the series on MCF7 [1]; 5% in the series with NCI-H460 [2]; 18% with SF-268 [3]; 29% in the series on K562 [13]; 30.2% with K562 [14]; 41.9% in the series with K562 [15]. In addition, the Activity in the series with K562 [16] was found to be 5.82%. Also, the GI50 was determined as 13300 nM in the series with MCF7 [4], 7460 nM with NCI-H460 [5], 7900 nM in the series with SF-268 [6] and 8590 nM with K562 [11]. The GI50 at 72 h in [7] was more than 100000 nM. For the same compound, the RatioGI50 is given as more than 7.51 in the series on MCF7 [8], more than 13.4 in the series with NCI-H460 [9], more than 12.66 in the series on SF-268 [10] and more than 11.64 in the series with K562 [12].

As to `c1ccc(/N=C2/c3ccccc3/C(=N/c3ccccc3)c3occc32)cc1`, the Activity in the series on MCF7 [1] is 111%; in the series with NCI-H460 [2], 111%; in the series with SF-268 [3], 102%.

Turning to `CN(C)CCO/N=C1/c2ccccc2C(=O)c2occc21`, the Activity in the series on MCF7 [1] came to 78%; in the series with NCI-H460 [2], 51%; with SF-268 [3], 53%.

For `O=C1c2ccccc2/C(=N/c2ccc(F)cc2)c2ccoc21`, the values for the Activity in the series with MCF7 [1], in the series on NCI-H460 [2] and with SF-268 [3] were 75%, 67% and 77%, respectively.

`Clc1ccc(/N=C2/c3ccccc3/C(=N/c3ccc(Cl)cc3)c3occc32)cc1`: the Activity in the series on MCF7 [1] was determined as 109%; in the series with NCI-H460 [2], 112%; in the series with SF-268 [3], 116%.

As to `O=C1c2ccccc2/C(=N/OCc2ccccc2)c2ccoc21`, the results for the Activity in the series with MCF7 [1], in the series on NCI-H460 [2] and in the series on SF-268 [3] were 93%, 85% and 103%, respectively.

`O=[N+]([O-])c1ccc(/N=C2/c3ccccc3/C(=N/c3ccc([N+](=O)[O-])cc3)c3occc32)cc1`: the Activity with MCF7 [1] stood at 111%; in the series with NCI-H460 [2], 117%; with SF-268 [3], 118%.

Regarding `Cc1ccc(/N=C2/c3ccccc3/C(=N/c3ccc(C)cc3)c3occc32)cc1`, the Activity in the series on MCF7 [1] was 104%; in the series on NCI-H460 [2], 104%; in the series with SF-268 [3], 118%.

As for `O=C1c2ccccc2/C(=N/OCCN2CCCCC2)c2ccoc21`, the results for the Activity with MCF7 [1], with NCI-H460 [2] and in the series with SF-268 [3] were 87%, 79% and 64%, respectively.

For the compound `Fc1ccc(/N=C2/c3ccccc3/C(=N/c3ccc(F)cc3)c3occc32)cc1`, the Activity in the series on MCF7 [1] came to 102%; in the series with NCI-H460 [2], 103%; in the series with SF-268 [3], 118%.

Consider `FC(F)(F)c1ccc(/N=C2/c3ccccc3/C(=N/c3ccc(C(F)(F)F)cc3)c3occc32)cc1`, for which the Activity in the series with MCF7 [1] is listed as 111%; in the series with NCI-H460 [2], 115%; in the series with SF-268 [3] it was 105%.

Consider `O=C1c2ccccc2/C(=N/c2ccccc2)c2ccoc21`, for which the Activity with MCF7 [1] stood at 74%; with NCI-H460 [2], 65%; in the series with SF-268 [3], 74%.
